Measurements reported in patent publication US12162918B2, “Periostin compounds for the treatment of haematological complications” (Chemotherapeutisches Forschungsinstitut Georg-Speyer-Haus, priority 2018, dated 2024).
“Also recorded” adds a separate entry of the source.

How the values were obtained:
[1] = system: periostin; test: Anti-Gla coimmunoprecipitation of conditioned medium from stroma cells; format: cell-based, mice; conditions: warfarin-treated stroma cells, anti-gla antibody
[2] = system: distal femora; test: Bone histomorphometry of distal femora; format: in vivo, mice
Description: The femora were isolated and first fixed in 4% paraformaldehyde at 4C overnight and then in 70% ethanol for an additional 5 days. Fixed bones were dehydrated in graded ethanol, then embedded in methyl methacrylate without demineralization. Undecalcified 5 μm thick longitudinal sections were obtained using a microtome (RM2255, Leica Biosystem, IL, USA). The sections were stained with Goldner Trichrome and at least two consecutive sections per specimen were examined for measurements of cellular parameters. A standard histomorphometric analysis of the femur methaphysis was performed using the Osteomeasure analysis system (Osteometrics Inc, Decatur, GA, USA). Measurements were performed 200 μm below the distal growth plate. The observer was blinded to the experimental group at the time of measurement. The cellular parameters were calculated and expressed according to the standardized nomenclature (Dempster et al., 2013).

[3] = system: LKS and LKS SLAM cells; test: G-CSF-mediated mobilization; format: in vivo; conditions: warfarin-treated mice
Description: In the mobilization experiments vehicle- or warfarin-treated C57/B16 mice were treated with 200 μg/kg G-CSF daily for 4 days, sacrificed on day 5 and peripheral blood analyzed for LKS and LKS SLAM cells by flow cytometry.

[4] = system: wildtype mice; test: Complete blood count and flow cytometry of peripheral blood and bone marrow of treated mice; format: in vivo; conditions: for absolute number of monocytes in peripheral blood / absolute number of leukocytes in peripheral blood: 14 days after initiation
Description: (§1) 0.5 mg/kg/d or 0.05 mg/kg/d of warfarin, resuspended in phosphate-buffered saline was administered to mice via subcutaneously implanted osmotic minipumps (ALZET minipumps, Cupertino, CA). The osmotic minipumps were changed after 14 days (if the experiment went beyond 14 days of treatment). Sham operated (skin incision and suture) mice served as controls. Warfarin treatment continued for 10-14 days. In the xenotransplantation experiments the mice were treated with warfarin via the drinking water (or normal drinking water) at a dose of 0.72 mg/100 ml for a total of 3 days a week (Pfeilschifter et al., 2011).
5-fluorouracil was intraperitoneally injected every week at a dose of 75 mg/kg for a total of 4 doses or as a one time dose of 200 mg/kg. Recombinant mouse periostin (R&D Systems, Minneapolis, MN, cat. no. 2955-F2), produced in the Sf21 (baculovirus)-derived insect cell line, was administered intravenously at a dose of 2-4 μg per day and vitamin K was given at a dose of 15 mg/kg by oral gavage for four consecutive days.
(§2) We assessed the complete blood count of vehicle or warfarin-treated mice using a complete blood count analyzer (Scil Vet ABC, Gurnee, IL). Peripheral blood and bone marrow samples were stained with antibodies for flow cytometry, which was performed on a BD LSR Fortessa (BD Biosciences, Heidelberg, Germany). The lineage antibody cocktail contained antibodies to B220, CD5, Ter119, F4/80 and CD11b. Engraftment of human cells in NSG mice was assessed using anti-human CD45 (BD Biosciences, San José, CA).

[5] = system: periostin knockout mice; test: Warfarin treatment of periostin knockout mice; format: in vivo
Description: 7 to 10 week old C57BL6/N (CD45.2) or SJL (CD45.1; B6.SJL-Ptprca Pepcb/BoyJ), Col1a1 2.3 kb-GFP (kind gift from D. Rowe), Nestin-GFP (Mignone et al., 2004) and periostin knockout mice (kind gift from Juerg Huelsken) were used for these experiments. NOD SCID interleukin (IL)-2 receptor γ deficient (NSG) mice were purchased from Charles River Laboratories (Sulzfeld, Germany) and bred in our facility. All animal studies were approved by the local German government (Regierungspräsidium Darmstadt) in Hessen, Germany, and by the Institutional Animal Care and Use Committee (IACUC) of Boston University.
as §1
5-fluorouracil was intraperitoneally injected every week at a dose of 75 mg/kg for a total of 4 doses or as a one time dose of 200 mg/kg. […]

[6] = system: bone marrow Lin− and LKS cells; test: Apoptosis, cell cycle, pAKT and macrophages in bone marrow of warfarin-treated mice; format: in vivo
Description: as §1
For cell cycle analysis cells were permeabilized and fixed with the cytoperm/cytofix kit (BD Biosciences, San Jose, CA), followed by staining with an antibody to Ki67-PE (Biolegend, San Diego, CA) overnight at 4 C. Consequently, cells were washed and resuspended in PBS with DAPI (1 ng/ml). For detection of apoptosis cells were first stained for surface markers, washed with Annexin V buffer (Life Technologies, Darmstadt, Germany), stained with Annexin V-PE (Life Technologies, Darmstadt, Germany), washed with Annexin V binding buffer, resuspended in PBS with DAPI and analyzed.
The PE-labelled anti-pAKT antibody (Cell signaling, #5315, Danvers, MA) was used for intracellular flow cytometry after fixation and permeabilization of the cells.

[7] = system: human CD34+ cells; test: Intrafemoral cotransplantation of human CD34+ cells with treated human stroma cells into NSG mice; format: in vivo
Description: For the intrafemoral co-transplantation experiments 0.8×10^5 human CD34+ cells or 1×10^5 Lin− cells from Actin-DsRed reporter mice were mixed with 5×10^5 human or murine stroma cells which had been expanded in vitro and pretreated with vehicle or 2 μM warfarin for 14 days. The human stromal cells had been obtained via flushing of discarded bones from the orthopedic operating room, as approved of by the local ethics committee.
as §2
Stroma and hematopoietic cells (purified for CD34+) were taken from the iliac crest of healthy donors of allogeneic bone marrow.

[8] = system: F4/80+ macrophages; test: Macrophage coculture assay and periostin in macrophage conditioned medium; format: cell-based, mice
Description: For the macrophage coculture assay F4/80+ macrophages were sorted from the bone marrow of control or warfarin-treated mice, plated and cocultured with 20,000-30,000 Lin− BM cells as from the following day.

[9] = system: wildtype mice; test: Measurement of the INR of warfarin-treated mice; format: in vivo; conditions: only at 0.5 mg/kg, vs sham-operated control mice, P=0.009
Description: as §1
A Coaguchek XS (Roche Diagnostics, Mannheim, Germany) and Coaguchek XS PT test strips were used to determine the INR of vehicle- and warfarin-treated mice.

SMILES: CC(=O)CC(c1ccccc1)c1c(O)c2ccccc2oc1=O (stereo not shown) [warfarin]
- γ-carboxylated periostin in conditioned medium [1]: no γ-carboxylated periostin could be detected
- ratio of bone volume/tissue volume (BV/TV) ([2]; P<0.001): decreased
- number of osteoblasts (N.Ob/B.Pm) ([2]; P=0.0001): significantly increased
- osteoblast surface (Ob.S/BS) ([2]; P=0.0008): significantly increased
- osteoclast surface (Oc.S/BS) ([2]; P=0.01): significantly increased
- osteoid volume (OV/BV) ([2]; P=0.046): significantly increased
- cancellous bone mass ([2]; distal femora, warfarin-treated vs control mice): dramatic reduction; also recorded: significant reduction
- osteoclast differentiation or number (N.Oc/B.Pm) ([2]; mouse, in vivo): absence of changes
- trabecular number and thickness ([2]; mouse, in vivo): reduced
- trabecular separation ([2]; mouse, in vivo): increased
- G-CSF-mediated mobilization of LKS SLAM cells into peripheral blood ([3]; P=0.026): impaired
- G-CSF-mediated mobilization of LKS cells into peripheral blood ([3]; P=0.042): impaired
- absolute count and percentage of LKS, LKS SLAM and myeloid progenitor cells in the bone marrow ([4]; 2 and 4 weeks, controls vs warfarin-treated mice): did not significantly differ
- time at which the decrease in leukocytes and monocytes appeared ([4]; after initiation of treatment): as early as three days
- absolute number of monocytes in peripheral blood ([4]; higher dose (0.5 mg/kg), P=0.007): reduced
- absolute number of leukocytes in peripheral blood ([4]; higher dose (0.5 mg/kg), P=0.008): reduced
- absolute number of leukocytes in peripheral blood ([4]; lower dose (0.05 mg/kg)): reduced
- absolute number of monocytes in peripheral blood ([4]; lower dose (0.05 mg/kg)): reduced
- leukocyte and monocyte counts, oral versus subcutaneous administration ([4]; oral versus subcutaneous): similarly reduced
- lethal hemorrhagic complications ([4]; subcutaneous versus oral treatment): fewer lethal hemorrhagic complications
- lymphocyte count ([4]; warfarin-treated mice): decreased, albeit to a lesser extent than myeloid cells
- percentage of CD11b+ myeloid cells in peripheral blood ([4]; warfarin-treated vs control mice, P=0.003): decreased
- leukocyte counts or survival in periostin knockout mice after 5-fluorouracil ([5]; repetitive doses of 75 mg/kg 5-fluorouracil): did not lead to lower leukocyte counts or decreased survival
- total leukocytes or monocytes in periostin knockout mice ([5]; vs control periostin knockout mice): did not lead to a decrease
- annexin V+ DAPI+ dead LKS cells in bone marrow ([6]; after 6 weeks, P=0.03): modest increase
- annexin V+ DAPI+ dead Lin− cells in bone marrow ([6]; after two weeks, P=0.038): modest increase
- macrophages in the bone marrow of primary mice ([6]; warfarin vs controls): not reduced
- percentage of LKS cells in the Go phase of the cell cycle ([6]; warfarin vs vehicle, P=0.005): significantly increased
- pAKT+ Lin− cells in the bone marrow ([6]; warfarin-treated vs control mice, P=0.04): significant reduction
- huCD45+ engraftment in femora ([7]; 6 months after transplantation): only trends towards lower
- engraftment of human CD45+ leukocytes ([7]; cotransplanted with warfarin-treated human stroma, 4 weeks, P=0.046): decreased engraftment
- percentage of Annexin V+ apoptotic leukocytes ([8]; untreated Lin− cells on warfarin-treated sorted F4/80+ macrophages, P=0.034): increased
- total periostin levels in conditioned medium from macrophages ([8]; vehicle- versus warfarin-treated macrophages, coimmunoprecipitation): no significant reduction
- international normalized ratio (INR) [9]: modest, but significant increase
